Experimental data from article PMC8347162, “A Cyclic BMP-2 Peptide Upregulates BMP-2 Protein-Induced Cell Signaling in Myogenic Cells” (Polymers, 2021).
Like-named read-outs stand apart in the source and are kept apart here. Positions of bridges follow the written chain, without caps; N, C: chain ends. Residues, ends and D or L forms follow the SMILES beside them.

Target: T1, BMPRII (Homo sapiens, UniProt Q13873)
T1 construct: purchased R&D
T1 sequence (Q13873 27-151 limits assumed): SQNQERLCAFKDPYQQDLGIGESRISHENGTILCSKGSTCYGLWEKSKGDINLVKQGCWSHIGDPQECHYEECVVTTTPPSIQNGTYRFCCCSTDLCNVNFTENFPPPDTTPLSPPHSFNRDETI
Test: SPR binding of peptides to immobilized BMPRII
Settings: for kon / koff: BMPRII immobilized on COOH5 chip (2000 RU), peptide injected 120 s at 5 μL/min, 5 min dissociation; for kon: read-out: Association Rate Constant ka; for koff: read-out: Dissociation Rate Constant kd
Method: SPR was performed using SensiQ discovery ((ICX Nomadics, Oklahoma City, OK, USA) SPR. For the affinity experiments, all the samples were dissolved in phosphate-buffered saline (PBS, pH 7.4) (UniRegion Bio-Tech, New Taipei City, Taiwan) containing 150 mM NaCl (St. Louis, MI, USA). The same buffer was also used as the running buffer. To immobilize the BMPRII, the active and reference flow cells of a COOH5 sensor chip (ICX Nomadics, Oklahoma City, OK, USA) carboxylic chip were activated with 1-ethyl-3-(3-(dimethylamino)-propyl) carbodiimide hydrochloride (EDC) and N-hydroxysuccinimide (NHS) (Cytiva, Marlborough, MA, USA) for 5 min. BMPRII protein diluted to 20 μg/mL with acetate buffer (pH4.5) (APOLO biochemical Inc., New York, NY, USA) was injected over the active cell for 3 min at 10 μL/min, resulting in an immobilization level of 2000 RU. Both the reference flow cell and active flow cell were blocked with ethanolamine (Bio Rad, Hercules, CA, USA), pH 8.5 for 6 min. The system was then switched to running buffer, and different concentrations of the peptide were injected for 120 s at 5 μL/min, with 5 min of dissociation. The binding data were analyzed using the BIA-evaluation software 3.0 (BIACORE, Uppasala, Sweden).
We first investigated the binding affinity of these five peptides for BMPRII using SPR. Each peptide was individually passed over a Sensiq […] chip pre-immobilized with BMPRII.

[1] = BMPRII immobilized on COOH5 chip, PBS pH 7.4 with 150 mM NaCl, P-02 from saturation binding curve, read-out: Equilibrium Rate Constant KD

Compound | kon (PBS pH 7.4 with 150 mM NaCl) [M⁻¹ s⁻¹] | koff (PBS pH 7.4 with 150 mM NaCl) [s⁻¹] | Kd [1] [µM] | Kd (as printed in text b26 without unit, read-out: equilibrium rate constant (KD) against BMPRII) [µM]
CC[C@H](C)[C@H](NC(=O)[C@H](C)NC(=O)[C@H](CO)NC(=O)[C@@H]1CSSC[C@H](N)C(=O)N[C@@H](CCCCN)C(=O)N[C@@H]([C@@H](C)CC)C(=O)N2CCC[C@H]2C(=O)N[C@@H](CCCCN)C(=O)N[C@@H](C)C(=O)N[C@@H](CO)C(=O)N[C@@H](CO)C(=O)N[C@@H](C(C)C)C(=O)N2CCC[C@H]2C(=O)N[C@@H]([C@@H](C)O)C(=O)N[C@@H](CCC(=O)O)C(=O)N[C@@H](CC(C)C)C(=O)N1)C(=O)N[C@@H](CO)C(=O)N[C@H](C(=O)N[C@@H](CC(C)C)C(=O)N[C@@H](Cc1ccc(O)cc1)C(=O)N[C@@H](CC(C)C)C(N)=O)[C@@H](C)O [P-03] (H-CKIPKASSVPTELCSAISTLYL-NH2; disulfide 1-14) | 352 | 0.0333 | – | –
CC[C@H](C)[C@H](NC(=O)[C@H](C)NC(=O)[C@H](CO)NC(=O)[C@H](CC(C)C)NC(=O)[C@H](CCC(=O)O)NC(=O)[C@@H](NC(=O)[C@@H]1CCCN1C(=O)[C@@H](NC(=O)[C@H](CO)NC(=O)[C@H](CO)NC(=O)[C@H](C)NC(=O)[C@H](CCCCN)NC(=O)[C@@H]1CCCN1C(=O)[C@@H](NC(=O)[C@@H](N)CCCCN)[C@@H](C)CC)C(C)C)[C@@H](C)O)C(=O)N[C@@H](CO)C(=O)N[C@H](C(=O)N[C@@H](CC(C)C)C(=O)N[C@@H](Cc1ccc(O)cc1)C(=O)N[C@@H](CC(C)C)C(N)=O)[C@@H](C)O [P-01] (H-KIPKASSVPTELSAISTLYL-NH2) | 0.27 | 0.0221 | – | –
P-02: Cyclic disulfide BMP-2 peptide, N-terminal and C-terminal regions outside the cyclic structure (KIPKCSSVPTELSCISTLYL; not fully specified; Intramolecular disulfide Cys5-Cys14; probably C-terminal amide (Rink amide resin); Parent is BMP-2 mature 73-92 (offset +282) in the P) | – | – | 80.6 | 80.6

More lines, now with the values ahead:

kon (PBS pH 7.4 with 150 mM NaCl) [M⁻¹ s⁻¹] | koff (PBS pH 7.4 with 150 mM NaCl) [s⁻¹] | Kd [1] [µM] | Kd (as printed in text b26 without unit, read-out: equilibrium rate constant (KD) against BMPRII) [µM] | Compound
460 | 0.0106 | 23.1 | – | CC[C@H](C)[C@@H]1NC(=O)[C@H](C)NC(=O)[C@H](CO)NC(=O)[C@H](CC(C)C)NC(=O)[C@H](CCC(=O)O)NC(=O)[C@H]([C@@H](C)O)NC(=O)[C@@H]2CCCN2C(=O)[C@H](C(C)C)NC(=O)[C@@H](NC(=O)[C@H](CO)NC(=O)[C@H](CO)NC(=O)[C@H](C)NC(=O)[C@H](CCCCN)NC(=O)[C@@H]2CCCN2C(=O)[C@@H](NC(=O)[C@@H](N)CCCCN)[C@@H](C)CC)CSSC[C@@H](C(N)=O)NC(=O)[C@H](CC(C)C)NC(=O)[C@H](Cc2ccc(O)cc2)NC(=O)[C@H](CC(C)C)NC(=O)[C@H]([C@@H](C)O)NC(=O)[C@H](CO)NC1=O [P-04] (H-KIPKASSCVPTELSAISTLYLC-NH2; disulfide 8-22)
37.8 | 0.000487 | 12.9 | – | CC[C@H](C)[C@@H]1NC(=O)[C@H](C)NC(=O)[C@H](CO)NC(=O)[C@H](CC(C)C)NC(=O)[C@H](CCC(=O)O)NC(=O)[C@H]([C@@H](C)O)NC(=O)[C@@H]2CCCN2C(=O)[C@H](C(C)C)NC(=O)[C@H](CO)NC(=O)[C@H](CO)NC(=O)[C@H](C)NC(=O)[C@H](CCCCN)NC(=O)[C@@H]2CCCN2C(=O)[C@H]([C@@H](C)CC)NC(=O)[C@H](CCCCN)NC(=O)[C@@H](N)CSSC[C@@H](C(N)=O)NC(=O)[C@H](CC(C)C)NC(=O)[C@H](Cc2ccc(O)cc2)NC(=O)[C@H](CC(C)C)NC(=O)[C@H]([C@@H](C)O)NC(=O)[C@H](CO)NC1=O [P-05] (H-CKIPKASSVPTELSAISTLYLC-NH2; disulfide 1-22)
